Test results reported in article PMC12040169 (PLOS Biology, 2025).

Experiment: in vitro
Conditions: human, hela cells, % viability

| Compound | viability at 28.5 h, 10 µM |
| --- | --- |
| CC(=O)Nc1nc2cc3c(cc2s1)OCCO3 [CBK287618] | 96.2% |
| O=C(Nc1nc2c(Br)cccc2s1)c1nc2ccccc2s1 [CBK287619] | 92.2% |
| Cc1cc(NC(=O)CN2CC(C)CC(C)C2)nc2c1c(=O)oc1ccccc12 (centres unmarked) [CBK287620] | 108% |
| O=C(CSc1ccc2nnc(-c3cccnc3)n2n1)c1ccccc1 [CBK287624] | 100% |
| c1ccc(CSc2ccc3nnc(-c4ccncc4)n3n2)cc1 [CBK287625] | 94.4% |
| NC(=O)CSc1nnc(NC(=O)c2ccccc2Cl)s1 [CBK287629] | 89.9% |
| Cc1ccc(S(=O)(=O)NCCc2cn3ccc(C)cc3n2)cc1 [CBK287630] | 103% |
| Cc1cccc(-c2nc(C(N)=O)c3[nH]c(=O)n(-c4ccc(F)cc4)c3n2)c1 [CBK287632] | 111% |
| CNC(=O)CSc1ncnc2c1cnn2-c1ccc(F)cc1 [CBK287633] | 94.4% |
| COc1ccc(-c2ccc(SCC(=O)Nc3cc(C)on3)nn2)cc1 [CBK287634] | 88.7% |
| O=C(CSc1ccc(-n2ccnc2)nn1)Nc1cccnc1 [CBK287635] | 97.6% |
| COc1ccc(OC)c(NC(=O)CSc2ccc(-c3ccncc3)nn2)c1 [CBK287637] | 86.6% |
| Cc1ccc2nc(N(CCCN(C)C)C(=O)c3ccco3)sc2c1 [CBK287639] | 114% |
| CN(C)CCCN(C(=O)c1ccccc1)c1nc2ccc(F)cc2s1 [CBK287640] | 97.4% |
| COc1ccc2sc(Nc3ccc(F)cc3)nc2c1 [CBK287641] | 95.3% |
| COc1ccc(N2CC(NC(=O)Nc3ccccn3)CC2=O)cc1 (centres unmarked) [CBK287642] | 96.9% |
| CCN1CCc2nc(NC(=O)c3ccc(Cl)cc3)sc2C1 [CBK287644] | 86.3% |
| Cc1cc(N)n(-c2nc3c(cnn3-c3ccc(C)c(C)c3)c(=O)[nH]2)n1 [CBK287646] | 97.8% |
| Cc1ccccc1-n1ncc2c(N3CCCC3)ncnc21 [CBK287648] | 99.2% |
| COc1ccc(NC(=O)Cc2csc(NC(C)=O)n2)cc1 [CBK287650] | 93.3% |
| Cc1ccc(-n2c(=O)[nH]c3c(C(=O)Nc4ccccc4)cn(C)c3c2=O)cc1 [CBK287651] | 93.9% |
| COc1ccc(C(=O)c2oc3cc(NC(=O)c4cccnc4)ccc3c2C)cc1 [CBK287652] | 85.1% |
| Cc1cc(O)nc(-n2nc(C)cc2NC(=O)c2ccccc2)n1 [CBK287653] | 101% |

| Compound | viability at 28.5 h, 10 µM |
| --- | --- |
| Cc1cc(=O)[nH]c(-n2nc(C)cc2NC(=O)c2ccccc2C)n1 [CBK287654] | 92.5% |
| CS(=O)(=O)N1CCC2(CC1)NC(=O)N(Cc1ccccc1)C2=O [CBK287656] | 100% |
| COCC(=O)Nc1ccc2c(c1)NC(=O)C(C)(C)CO2 [CBK287658] | 89% |
| COc1cccc2cc(C(=O)Nc3cccc(C)n3)oc12 [CBK287659] | 94.5% |
| Cc1ccc(OCC(=O)Nc2ccc3c(c2)C(=O)Nc2ccccc2O3)cc1 [CBK287660] | 88.2% |
| Cn1c(SCC(=O)c2ccc(F)cc2)ncc(C(=O)Nc2ccccc2)c1=O [CBK287672] | 111% |
| Cc1ccc(NC(=O)c2cnc(SCc3ccccn3)n(C)c2=O)cc1 [CBK287673] | 92.9% |
| Cc1ccc(NC(=O)CSc2nc3[nH]ncc3c(=O)[nH]2)cc1 [CBK287675] | 93.5% |
| O=C(CSc1nnc2ccc(-c3ccccc3)nn12)Nc1ccc(F)cc1 [CBK287676] | 91.5% |
| O=C(CSc1nnc2ccc(-c3ccccc3)nn12)NCc1ccccc1 [CBK287677] | 67.6% |
| c1ccc(CSc2nnc3ccc(-c4ccncc4)nn23)cc1 [CBK287681] | 86.5% |
| Cc1ccc(C(=O)Nc2cccc(-c3ccc4nnc(C)n4n3)c2)cc1 [CBK287683] | 82.8% |
| CCCc1cc(=O)[nH]c2nnc(SCC(=O)NC)n12 [CBK287685] | 95.3% |
| Cc1c(C)n2c(SCC(=O)N3CCCC3)nnc2[nH]c1=O [CBK287686] | 99.4% |
| CNC(=O)CSc1nnc2[nH]c(=O)c(C)c(C)n12 [CBK287687] | 108% |
| Cc1ccccc1-n1ncc2c(=O)n(CC(=O)N3CCCCC3)cnc21 [CBK287688] | 108% |
| Cc1ccccc1-n1ncc2c(=O)n(CC(=O)Nc3ccccc3)cnc21 [CBK287689] | 98.4% |
| CC(=O)Cn1cnc2c(cnn2-c2cccc(Cl)c2)c1=O [CBK287692] | 84.4% |
| Cc1cccc(-n2ncc3c(=O)n(CC(=O)Nc4ccccc4)cnc32)c1C [CBK287693] | 95.1% |
| COc1cc(-c2nnc(NC(C)=O)o2)cc(OC)c1OC [CBK287698] | 95.2% |
| COc1cc2nc(NC(=O)c3ccccc3)sc2cc1OC [CBK287701] | 82.3% |
| O=c1[nH]cc(S(=O)(=O)Nc2ccccc2)c(=O)[nH]1 [CBK287703] | 93.5% |
| CCn1c2c(c(=O)[nH]c1=O)C(c1ccccc1)C1=C(COC1=O)N2 (centres unmarked) [CBK287704] | 95.6% |

| Compound | viability at 28.5 h, 10 µM |
| --- | --- |
| Cc1ccc(S(=O)(=O)CC(=O)Nc2nc3ccc(C)cc3s2)cc1 [CBK287705] | 89.8% |
| Cc1ccc(S(=O)(=O)CCC(=O)Nc2ccc3sc(C)nc3c2)cc1 [CBK287706] | 99.3% |
| COc1ccccc1CNC(=O)c1cnc2sc(C)cn2c1=O [CBK287708] | 104% |
| COc1ccc(CCNC(=O)c2cnc3sc(C)cn3c2=O)cc1OC [CBK287709] | 104% |
| Cc1cn2c(=O)c(C(=O)Nc3ccccc3C)cnc2s1 [CBK287710] | 94.1% |
| Cc1cn2c(=O)c(C(=O)Nc3ccc(F)c(C(F)(F)F)c3)cnc2s1 [CBK287713] | 77.9% |
| COc1ccc(C)cc1NC(=O)c1cnc2sc(C)cn2c1=O [CBK287714] | 105% |
| CC(=O)Nc1cccc(NC(=O)c2cnc3sc(C)cn3c2=O)c1 [CBK287715] | 92% |
| Cc1ccc(-n2c(=O)[nH]c3c(C(N)=O)nc(-c4ccccc4)nc32)cc1C [CBK287718] | 84.7% |
| Cc1cc(SCc2ccc(Cl)cc2)nc(=O)[nH]1 [CBK287719] | 90.8% |
| O=C(CN1CCC(c2nc3ccccc3[nH]2)CC1)Nc1ccc(F)cc1 [CBK287720] | 90% |
| CCS(=O)(=O)c1ccc(C(=O)Nc2nc3c(F)cc(F)cc3s2)cc1 [CBK287727] | 106% |
| O=C(NCc1cccnc1)C(=O)Nc1cc2c3c(c1)CCC(=O)N3CCC2 [CBK287728] | 92% |
| Cc1cc(O)c(C(=O)Nc2cccc(Cl)c2)c(=O)n1Cc1ccccn1 [CBK287729] | 99.3% |
| O=C(COc1cccc2c1CCNC2=O)Nc1ccccc1 [CBK287730] | 89% |
| Cc1ccc(NC(=O)N2CCn3cccc3C2c2cccnc2)cc1 (centres unmarked) [CBK287733] | 87.1% |
| Cc1ccc(CNC(=O)CSc2nc(C)c(C)c(=O)[nH]2)cc1 [CBK287735] | 92.8% |
| CCc1nc(C(N)=O)c2[nH]c(=O)n(-c3ccccc3F)c2n1 [CBK287739] | 107% |
| Cn1c(=O)c(C(=O)Nc2ccc(Cl)cc2)cc2cccnc21 [CBK287741] | 94.4% |
| COc1ccc(C(=O)Nc2nnc(-c3ccc(OC)c(OC)c3)o2)cc1OC [CBK287745] | 93.7% |
| COc1cccc2c1OC(c1cccnc1)N1N=C(c3cccc(O)c3)CC21 (centres unmarked) [CBK287747] | 104% |
| CCSc1ccnc2c1c(=O)n(C)c(=O)n2C [CBK287749] | 98.9% |
| CC1CCc2c(sc(NC(=O)c3ccno3)c2C(N)=O)C1 (centres unmarked) [CBK287752] | 85.4% |

| Compound | viability at 28.5 h, 10 µM |
| --- | --- |
| CC(=O)N1CCN(c2ncnc3c2nnn3-c2ccccc2)CC1 [CBK287753] | 92.9% |
| O=C(c1ccco1)N(CCCn1ccnc1)c1nc2c(F)cccc2s1 [CBK287758] | 86.4% |
| O=C(Cn1ncn2nc(-c3ccccc3)cc2c1=O)Nc1ccc(F)cc1 [CBK287759] | 85.8% |
| Cc1ccc(N2C(=O)CC(Sc3ncccc3C(=O)O)C2=O)cc1 (centres unmarked) [CBK287761] | 87.7% |
| CCNC(=O)c1cc2c(=O)n3ccccc3nc2n(C)c1=N [CBK287762] | 90.7% |
| CCOc1ccc(-c2csc(NC(=O)CC)n2)cc1 [CBK287764] | 92.5% |
| Cc1ccc(-c2csc3ncnc(Cl)c23)cc1 [CBK287765] | 74.7% |
| COc1ccc2oc(-c3ccccc3)c(C(=O)Nc3nccs3)c2c1 [CBK287767] | 71.8% |
| O=C(CSc1nccn(-c2ccc(F)cc2)c1=O)Nc1ccc(F)cc1 [CBK287768] | 91.2% |
| COCCCNc1nc2c(-c3ccc(Cl)cc3)nnn2c2ccccc12 [CBK287770] | 96.3% |
| COc1ccc(CNC(=O)C2CCCN(c3cnc4ccccc4n3)C2)cc1 (centres unmarked) [CBK287772] | 112% |
| COc1cc(-c2noc(-c3cc(-c4ccccc4)n[nH]3)n2)cc(OC)c1OC [CBK287774] | 92.3% |
| Cc1nc2c(c(=O)c3ccccc3n2C)c(=O)n1Cc1ccco1 [CBK287776] | 100% |
| CCCCN1CC(=O)C(c2nc3ccccc3[nH]2)=C1N [CBK287777] | 93.7% |
| CN(C)CCCN1C(=O)C(O)=C(C(=O)c2ccccc2)C1c1ccccn1 (centres unmarked) [CBK287778] | 110% |
| Cc1cc(N2C(=O)c3oc4ccccc4c(=O)c3C2c2ccncc2)no1 (centres unmarked) [CBK287780] | 103% |
| Cn1c(C2CC(=O)N(c3ccc(Cl)cc3)C2)nc2ccccc21 (centres unmarked) [CBK287783] | 87.1% |
| CCCn1c(CN2CCOCC2)nc2ccccc21 [CBK287784] | 99.1% |
| O=C(Nc1ccncc1)c1ccc(S(=O)(=O)N2CCCC2)cc1 [CBK287786] | 106% |
| O=C(Nc1ccncc1)c1cc(-c2ccncc2)nc2ccccc12 [CBK287787] | 100% |
| O=C(CSc1ncnc2c1oc1ccccc12)NC1CCCC1 [CBK287788] | 99.4% |
| Cc1ccc(NC(=O)c2ccc(-n3nncc3C)cc2)cc1 [CBK287790] | 80.9% |
| CCCCNc1cc(C)nc2c(-c3ccccc3)cnn12 [CBK287792] | 92.1% |
